Assay results as given in US20250222146A1, “Radiopharmaceuticals Targeting Somatostatin Receptor 2 and Uses Thereof” (RayzeBio, Inc., priority 2023, published 2025).
Numbered stars: 1 amine (or outer) side, 2 acyl side, 3 side chain; on linkers, the order of the positions; unused ones are H or OH. Square brackets hold non-standard residues; d marks the D form. Peptide text beside a SMILES is read from it. * marks the point of attachment. DOTA(Lu)NH(CH2)6NHCOCH2 = O=C(CN1CCN2CCN3CCN(CC1)CC(=O)[O][Lu]([O]C(=O)C2)[O]C(=O)C3)NCCCCCCNC(=O)C*; X6 = O=C(CN1CCN2CCN3CCN(CC1)CC(=O)[O][Lu]([O]C(=O)C2)[O]C(=O)C3)NCCOCCOCCOCCNC(=O)C*; DOTA(Lu) = O=C1CN2CCN3CCN(CC(=O)*)CCN(CC2)CC(=O)[O][Lu]([O]1)[O]C(=O)C3; X5 = O=C(CN1CCN2CCN3CCN(CC1)CC(=O)[O][Lu]([O]C(=O)C2)[O]C(=O)C3)NCC*; Ala(piperidin-4-yl) = O=C([C@H](CC1CCN([*:3])CC1)N[*:1])[*:2]; dTrp(βS-Me) = C[C@@H](c1c[nH]c2ccccc12)[C@@H](N)C(=O)O; βMeTrp(2S,3R) = C[C@H](c1c[nH]c2ccccc12)[C@H](N)C(=O)O; dTrp(5-OMe) = COc1ccc2[nH]cc(C[C@@H](N)C(=O)O)c2c1; dTrp(4-Me) = Cc1cccc2[nH]cc(C[C@@H](N)C(=O)O)c12; dTrp(5-Cl) = N[C@H](Cc1c[nH]c2ccc(Cl)cc12)C(=O)O; dTrp(5-Me) = Cc1ccc2[nH]cc(C[C@@H](N)C(=O)O)c2c1; Phe(4-CH2NH2) = NCc1ccc(C[C@H](N)C(=O)O)cc1; Lys(iPr) = CC(C)NCCCC[C@H](N)C(=O)O; NMehCys = CN[C@@H](CCS)C(=O)O; NMeK = CN[C@@H](CCCCN)C(=O)O; NMeS = CN[C@@H](CO)C(=O)O

The compounds below were run against SSTR2 (Homo sapiens, UniProt P30874) (assay: SSTR binding affinity by radioligand binding competition assay ([125I]-Tyr11-Somatostatin, membrane extracts)). Settings: radioligand competition, [125I]-Tyr11-Somatostatin 0.1 nM, membrane extracts; Ki from IC50 by Cheng Prusoff.
Chain of SSTR2 (P30874 whole entry): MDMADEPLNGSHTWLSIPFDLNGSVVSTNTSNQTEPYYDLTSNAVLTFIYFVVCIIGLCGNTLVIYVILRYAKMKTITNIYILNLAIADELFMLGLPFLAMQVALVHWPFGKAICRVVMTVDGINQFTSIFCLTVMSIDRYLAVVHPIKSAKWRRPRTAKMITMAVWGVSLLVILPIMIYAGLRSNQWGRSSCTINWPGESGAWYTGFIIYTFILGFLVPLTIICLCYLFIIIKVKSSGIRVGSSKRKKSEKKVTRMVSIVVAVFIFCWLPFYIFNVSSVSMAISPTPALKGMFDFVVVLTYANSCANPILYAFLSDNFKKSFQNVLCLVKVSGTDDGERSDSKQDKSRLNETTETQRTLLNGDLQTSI
For `COc1ccc2[nH]cc(C[C@H]3NC(=O)[C@H](Cc4ccc(O)cc4)NC(=O)[C@H](CCSCC(=O)NCCCCCCNC(=O)CN4CCN5CCN6CCN(CC4)CC(=O)[O][Lu]([O]C(=O)C5)[O]C(=O)C6)N(C)C(=O)[C@H](Cc4ccccc4)NC(=O)[C@H]([C@@H](C)O)NC(=O)[C@H](CC4CCNCC4)NC3=O)c2c1` [RB-0006076] (cyclo(F[NMehCys](DOTA(Lu)NH(CH2)6NHCOCH2)Y[dTrp(5-OMe)][Ala(piperidin-4-yl)]T)), the “SSTR2 Ki” value was “FALSE”.

Same assay, conditions: radioligand competition, [125I]-Tyr11-Somatostatin 0.1 nM, membrane extracts; Ki from IC50 by Cheng Prusoff; read-out: SSTR2 Ki
`C[C@@H](O)[C@@H]1NC(=O)[C@H](CC2CCNCC2)NC(=O)[C@@H]([C@@H](C)c2c[nH]c3ccccc23)NC(=O)[C@H](Cc2ccc(O)cc2)NC(=O)[C@H](CCSCC(=O)NCCOCCOCCOCCNC(=O)CN2CCN3CCN4CCN(CC2)CC(=O)[O][Lu]([O]C(=O)C3)[O]C(=O)C4)N(C)C(=O)[C@H](Cc2ccccc2)NC1=O` [RB-0005994] (cyclo(F[NMehCys](X6)Y[dTrp(βS-Me)][Ala(piperidin-4-yl)]T)) showed a Ki of less than 1 nM.
Work on `C[C@@H](O)[C@@H]1NC(=O)[C@H](Cc2ccc(CN)cc2)NC(=O)[C@@H]([C@@H](C)c2c[nH]c3ccccc23)NC(=O)[C@H](Cc2ccc(O)cc2)NC(=O)[C@H](CCSCC(=O)NCCCCCCNC(=O)CN2CCN3CCN4CCN(CC2)CC(=O)[O][Lu]([O]C(=O)C3)[O]C(=O)C4)N(C)C(=O)[C@H](Cc2ccccc2)NC1=O` [RB-0006009] (cyclo(F[NMehCys](DOTA(Lu)NH(CH2)6NHCOCH2)Y[dTrp(βS-Me)][Phe(4-CH2NH2)]T)) yielded a Ki of 1 to 3.33 nM.
`CC(C)NCCCC[C@@H]1NC(=O)[C@@H]([C@@H](C)c2c[nH]c3ccccc23)NC(=O)[C@H](Cc2ccc(O)cc2)NC(=O)[C@H](CCSCC(=O)NCCCCCCNC(=O)CN2CCN3CCN4CCN(CC2)CC(=O)[O][Lu]([O]C(=O)C3)[O]C(=O)C4)N(C)C(=O)[C@H](Cc2ccccc2)NC(=O)[C@H]([C@@H](C)O)NC1=O` [RB-0006011] (cyclo(F[NMehCys](DOTA(Lu)NH(CH2)6NHCOCH2)Y[dTrp(βS-Me)][Lys(iPr)]T)) showed a Ki of 1 to 3.33 nM.
`C[C@H](c1c[nH]c2ccccc12)[C@@H]1NC(=O)[C@H](Cc2ccc(O)cc2)NC(=O)[C@H](CCSCC(=O)NCCCCCCNC(=O)CN2CCN3CCN4CCN(CC2)CC(=O)[O][Lu]([O]C(=O)C3)[O]C(=O)C4)N(C)C(=O)[C@H](Cc2ccccc2)NC(=O)[C@H]([C@@H](C)O)NC(=O)[C@H](CCCCN)NC1=O` [RB-0006019] (cyclo(F[NMehCys](DOTA(Lu)NH(CH2)6NHCOCH2)Y[βMeTrp(2S,3R)]KT)) showed a Ki of less than 1 nM.
With `C[C@H](c1c[nH]c2ccccc12)[C@@H]1NC(=O)[C@H](Cc2ccc(O)cc2)NC(=O)[C@H](CCCCNC(=O)CN2CCN3CCN4CCN(CC2)CC(=O)[O][Lu]([O]C(=O)C3)[O]C(=O)C4)N(C)C(=O)[C@H](Cc2ccccc2)NC(=O)[C@H]([C@@H](C)O)NC(=O)[C@H](CC2CCNCC2)NC1=O` [RB-0006069] (cyclo(F[NMeK](DOTA(Lu))Y[βMeTrp(2S,3R)][Ala(piperidin-4-yl)]T)) the Ki was 3.33 to 10 nM.
Compound `Cc1cccc2[nH]cc(C[C@H]3NC(=O)[C@H](Cc4ccc(O)cc4)NC(=O)[C@H](CCSCC(=O)NCCCCCCNC(=O)CN4CCN5CCN6CCN(CC4)CC(=O)[O][Lu]([O]C(=O)C5)[O]C(=O)C6)N(C)C(=O)[C@H](Cc4ccccc4)NC(=O)[C@H]([C@@H](C)O)NC(=O)[C@H](CC4CCNCC4)NC3=O)c12` [RB-0006073] (cyclo(F[NMehCys](DOTA(Lu)NH(CH2)6NHCOCH2)Y[dTrp(4-Me)][Ala(piperidin-4-yl)]T)) has a Ki of 3.33 to 10 nM.
`Cc1ccc2[nH]cc(C[C@H]3NC(=O)[C@H](Cc4ccc(O)cc4)NC(=O)[C@H](CCSCC(=O)NCCCCCCNC(=O)CN4CCN5CCN6CCN(CC4)CC(=O)[O][Lu]([O]C(=O)C5)[O]C(=O)C6)N(C)C(=O)[C@H](Cc4ccccc4)NC(=O)[C@H]([C@@H](C)O)NC(=O)[C@H](CC4CCNCC4)NC3=O)c2c1` [RB-0006074] (cyclo(F[NMehCys](DOTA(Lu)NH(CH2)6NHCOCH2)Y[dTrp(5-Me)][Ala(piperidin-4-yl)]T)) was tested, and the Ki was 3.33 to 10 nM.
For `C[C@@H](O)[C@@H]1NC(=O)[C@H](CC2CCNCC2)NC(=O)[C@@H](Cc2c[nH]c3ccc(Cl)cc23)NC(=O)[C@H](Cc2ccc(O)cc2)NC(=O)[C@H](CCSCC(=O)NCCCCCCNC(=O)CN2CCN3CCN4CCN(CC2)CC(=O)[O][Lu]([O]C(=O)C3)[O]C(=O)C4)N(C)C(=O)[C@H](Cc2ccccc2)NC1=O` [RB-0006075] (cyclo(F[NMehCys](DOTA(Lu)NH(CH2)6NHCOCH2)Y[dTrp(5-Cl)][Ala(piperidin-4-yl)]T)), the Ki was 1 to 3.33 nM.
`C[C@@H](O)[C@@H]1NC(=O)[C@H](CC2CCNCC2)NC(=O)[C@@H]([C@@H](C)c2c[nH]c3ccccc23)NC(=O)[C@H](Cc2ccc(O)cc2)NC(=O)[C@H](COCCNC(=O)CN2CCN3CCN4CCN(CC2)CC(=O)[O][Lu]([O]C(=O)C3)[O]C(=O)C4)N(C)C(=O)[C@H](Cc2ccccc2)NC1=O` [RB-0006095] (cyclo(F[NMeS](X5)Y[dTrp(βS-Me)][Ala(piperidin-4-yl)]T)) was tested, and the Ki was less than 1 nM.
